Patent US8367602B2, “Consensus peptides and a method for inducing biomineralization” (Corticalis AS, priority 2006, dated 2013)
Several values for one entry are separate records, joined by “and”; a condition that tells them apart may be missing. Identical values can stand only once. Ends that are not written are not given here.

Key:
[1] = Mineral precipitation (mfu by SEM) on peptide-coated coin shaped titanium specimens, Example 1
Method: Eight coin shaped implants with a diameter of 6.25 mm, was attached to an titanium electrode and submerged in an sterile electrolyte containing 0.5 M NaCl, adjusted to pH 8.0 by the use of 1.0 M NaOH, and a synthetic poly-proline peptide designed to stimulate nucleation of calcium phosphate crystals. The peptide, having a pI of 5.82, had the following sequence: PLV PSY PLV PSY PLV PSY PYP PLPP (SEQ ID NO:3), and was applied at a final concentration of 0.01 mg/ml in the electrolyte. The electrode was attached to the positive outlet of a power supply, and an electrical current of 10 Volts at 100 mA at a cell temperature of 40 degrees Celsius, was applied for eight hours. The electrolytic process produced a thin peptide coating onto the oxidized titanium surface visible as a greyish precipitation. After coating the titanium specimens were rinsed in sterile water and subsequently put into sterile glass containers where they were allowed to air-dry. Eight identical titanium specimens, treated identically as the test specimens with the exception that no peptides were added to the electrolyte, was produced as controls. After drying, the titanium specimens (peptide coated and controls) were submerged in 50 ml of a saturated solution of calcium phosphate at 50 degrees Celsius. The solution was then allowed to cool to room temperature and incubated at 25 degrees Celsius for 48 hours. The titanium specimens were then removed from the solution, rinsed briefly in sterile water and air-dried in a desiccator. When dry, the implants were directly analyzed by scanning electron microscopy (SEM) for quantitative and qualitative assessment of the number and nature of mineral precipitation foci present on their surfaces. The number of mineral forming units (mfu) on the surface directly corresponds to the number of mineral nucleation sites present on the surface during the experiments.
This is a strong indication that the synthetic peptide used here positively influence the formation of bone mineral deposition onto titanium surfaces.

[2] = Isoelectric point (pI) of the peptide; assay type: physicochemical
LDH activity [3] = experiment: Wound fluid LDH activity at implant site, tresyl chloride coupled peptide, Example 5; assay type: in vivo, rabbits (New Zealand White); conditions: 4 weeks healing, vs control implants; tresyl chloride coupling
Method: The surface of the machined titanium implant was first covered with 10 μl of tresyl chloride (2,2,2-trifluoroethanesulfonyl chloride) and incubated at 37° C. for 2 days. Then, the tresylated titanium implant was washed with water, water-acetone (50:50), acetone, and dried in a desiccator.
Peptide solution (10 μl, 0.1 mg/ml) was applied to the surface of the titanium implant and incubated for 24 h at 37° C., then rinsed with water. Finally, implants were dried in a desiccator, packed and stored at 4° C.
(§1) The implants with consensus peptide coated surfaces (n=12) and controls (n=12) were placed in calibrated cortical bone defects in the tibia of rabbits (New Zealand White). A small central fenestration into the bone marrow beneath each implant was made to allow for migration of osteogenic cells to the implant surfaces. The methods used were all according to a standardized and validated model established for the study of bone attachment to titanium implant surfaces (Rønold and Ellingsen, 2002). Each rabbit received four implants, two in each tibia bone. Location of test and control implants was randomized and the operator was blinded. At four weeks after implantation the rabbits were sacrificed and the tibia bones with the implants attached were excised. […]
(§2) LDH activity and total protein was analysed in the wound fluid collected from the implant site following a 4 week healing period. […]

LDH activity [4] = experiment: Wound fluid LDH activity at implant site, physically adsorbed peptide, Example 6; assay type: in vivo, rabbits (New Zealand White); conditions: 4 weeks healing, vs control implants; physical adsorption
Method: Peptides can be physically adsorbed onto a titanium surface, as an alternative method for covalent binding. Negatively charged carboxylic groups show a strong affinity for metal oxide surfaces and can therefore directly interact with the titanium surface (Imamura et al, 2007). Peptide solution (10 μl, 0.1 mg/ml) was applied to the surface of the titanium implant and incubated for 24 h at 37° C. After 24 h, titanium implants were rinsed and packed with the same method as described above. Control implants were treated with 10 μl of PBS without adding peptide.
as §1, with “blinded.” for “blinded. At four weeks after implantation the rabbits were sacrificed and the tibia bones with the implants attached were excised.”
as §2

Row | Substance | Number of mineral forming units (mfu) per square mm titanium surface assessed by SEM ([1]; individual peptide coated specimens, saturated calcium phosphate solution, 48 hours at 25 degrees Celsius) | Number of mineral forming units (mfu) per square mm titanium surface assessed by SEM, mean values ([1]; mean of peptide coated specimens (n = 8)) | number of mineral deposition foci versus controls ([1]; peptide coated titanium specimens vs controls without peptide) | pI [2] | LDH activity in the periimplant tissue (wound fluid) (LDH activity [3]) | LDH activity in the periimplant tissue (wound fluid) (LDH activity [4])
1 | PLV PSY PLV PSY PLV PSY PYP PLPP (PLVPSYPLVPSYPLVPSYPYPPLPP; Mineralization/biomineralization inducing peptide) [SEQ ID NO 3] | 5625 mfu mfu per square mm and Confluent (Values above 10.000 are recorded as “Confluent”) (4×) and 7744 mfu mfu per square mm and 9025 mfu mfu per square mm and 8100 mfu mfu per square mm | >8812 mfu mfu per square mm | significantly (p<0.01) increased | 5.82 |  | 
2 | PLVPSQPLVPSQPLVPSQPQPPLPP [SEQ ID NO 4, PLV PSQ PLV PSQ PLV PSQ PQP PLPP] |  |  |  |  | decrease | decrease
